Our source for the MIC, Activity and IC50 values is ChEMBL document CHEMBL1145510, “SCO-1, a novel plasmid-mediated class A beta-lactamase with carbenicillinase characteristics from Escherichia coli” (Antimicrob Agents Chemother, 2007).

The test system of experiment [1] is Escherichia coli. Briefly: Antibacterial activity against Escherichia coli 3521r carrying pR352 encoding SCO1 by agar dilution technique. It is filed as functional. (Agar dilution tests growth on a series of plates holding different concentrations.)
The test system of experiment [2] is Escherichia coli. In words: Antibacterial activity against Escherichia coli K12 carrying pR3521 encoding SCO1 by agar dilution technique. It is filed as functional.
Experiment [3] relates to Escherichia coli. In words: Antibacterial activity against Escherichia coli DH5-alpha carrying pSCO1 encoding SCO1 by agar dilution technique. It is filed as functional. Particulars: DH5alpha.
Experiment [4] relates to Escherichia coli. In words: Antibacterial activity against Escherichia coli DH5-alpha by agar dilution technique. Particulars: DH5alpha. The experiment is classed as functional.
In experiment [5] the target is T1, Beta-lactamase SCO-1 (Escherichia coli) (UniProt A1E3K9).
T1 sequence (whole entry): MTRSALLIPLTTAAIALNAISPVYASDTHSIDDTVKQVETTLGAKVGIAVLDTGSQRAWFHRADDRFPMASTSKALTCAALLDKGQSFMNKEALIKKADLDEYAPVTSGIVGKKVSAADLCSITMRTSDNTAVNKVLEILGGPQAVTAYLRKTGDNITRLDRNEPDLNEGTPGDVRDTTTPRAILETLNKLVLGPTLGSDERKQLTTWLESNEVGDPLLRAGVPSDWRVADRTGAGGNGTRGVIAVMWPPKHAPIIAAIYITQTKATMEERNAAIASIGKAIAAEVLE
Briefly: Activity of Escherichia coli beta-lactamase SCO1 relative to penicillin G.

The subject of experiment [6] is Escherichia coli. In words: Activity of Escherichia coli K12 beta-lactamase CARB1 relative to penicillin G.
The target in experiment [7] is Beta-lactamase TEM (Escherichia coli) (UniProt P62593). Briefly: Activity of Escherichia coli K12 beta-lactamase TEM1 relative to penicillin G.
Beta-lactamase TEM (Escherichia coli), sequence (P62593 whole entry): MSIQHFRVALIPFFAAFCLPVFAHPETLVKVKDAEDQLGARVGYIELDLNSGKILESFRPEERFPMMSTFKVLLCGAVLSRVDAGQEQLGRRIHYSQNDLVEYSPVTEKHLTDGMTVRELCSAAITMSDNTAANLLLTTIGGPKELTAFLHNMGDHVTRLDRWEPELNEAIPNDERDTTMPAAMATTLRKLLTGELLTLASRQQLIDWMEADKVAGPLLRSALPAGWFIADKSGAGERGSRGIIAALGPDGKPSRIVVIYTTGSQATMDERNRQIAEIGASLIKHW
Experiment [8] in a line: Inhibition of Escherichia coli K12 CARB1.
Experiment [9] deals with Beta-lactamase TEM (Escherichia coli) (UniProt P62593). In words: Inhibition of Escherichia coli TEM1.

In brackets after ≈: the same amount, converted by molar mass.

In general, MIC refers to the smallest concentration in the dilution series that meets the test's criterion for growth inhibition. Higher therefore signals weaker potency. As for `C[C@H]1[C@H](NC(=O)/C(=N\OC(C)(C)C(=O)O)c2csc(N)n2)C(=O)N1S(=O)(=O)O` [AZTREONAM], the MIC with Escherichia coli [1] is 1 µg/mL (≈ 2.3 µM); against Escherichia coli [2], 1 µg/mL (≈ 2.3 µM); in the experiment on Escherichia coli [3] it was not above 0.12 µg/mL; with Escherichia coli [4], not above 0.12 µg/mL.
Take `O=C(Cc1cccs1)N[C@@H]1C(=O)N2C(C(=O)[O-])=C(C[n+]3ccccc3)CS[C@H]12`: the Activity was found to be 21 in [5], 15 in the experiment with Escherichia coli [6] and 154 in experiment [7].
What is called IC50 is the concentration that inhibits the measured activity by half. A high value points to weaker potency in that assay. As for `C[C@]1(Cn2ccnn2)[C@H](C(=O)O)N2C(=O)C[C@H]2S1(=O)=O` [TAZOBACTAM], inhibition in experiment [8] was half-maximal at 0.08 µM (IC50).
In the case of `CC1(C)S[C@@H]2[C@H](NC(=O)C(C(=O)O)c3ccccc3)C(=O)N2[C@H]1C(=O)O` (some centres undefined) [CARBENICILLIN], the MIC against Escherichia coli [1] was found to be 128 µg/mL (≈ 338 µM); in the experiment with Escherichia coli [2], 64 µg/mL (≈ 169 µM); in the experiment on Escherichia coli [3] it was 128 µg/mL (≈ 338 µM); with Escherichia coli [4], 1 µg/mL (≈ 2.64 µM). The Activity in [5] stood at 78; in the experiment on Escherichia coli [6], 146; in [7], 15.
As to `CC1(C)S[C@@H]2[C@H](NC(=O)[C@H](C(=O)O)c3ccsc3)C(=O)N2[C@H]1C(=O)O` [TICARCILLIN], the minimal inhibitory concentration (MIC) is not below 256 µg/mL against Escherichia coli [1], not below 256 µg/mL against Escherichia coli [2], not below 256 µg/mL against Escherichia coli [3] and 2 µg/mL (≈ 5.2 µM) against Escherichia coli [4].
For `C[C@@H](O)[C@H]1C(=O)N2C(C(=O)O)=C(SCCNC=N)C[C@H]12` [IMIPENEM ANHYDROUS], the MIC in the experiment with Escherichia coli [3] and against Escherichia coli [4] was not above 0.12 µg/mL each time.
Regarding `CC1(C)S[C@@H]2[C@H](NC(=O)[C@H](N)c3ccc(O)cc3)C(=O)N2[C@H]1C(=O)O` [AMOXICILLIN], the minimal inhibitory concentration (MIC) with Escherichia coli [1] was not below 256 µg/mL; against Escherichia coli [2] it was not below 256 µg/mL; in the experiment with Escherichia coli [3], not below 256 µg/mL; in the experiment on Escherichia coli [4] it was 4 µg/mL (≈ 10.9 µM). Moreover, the Activity was found to be 100 with Escherichia coli [6] and 108 in [7].
Consider `CO/N=C(\C(=O)N[C@@H]1C(=O)N2C(C(=O)O)=C(COC(C)=O)CS[C@H]12)c1csc(N)n1` [CEFOTAXIME], for which the MIC against Escherichia coli [1] was 8 µg/mL (≈ 17.6 µM); in the experiment on Escherichia coli [2], 4 µg/mL (≈ 8.78 µM); against Escherichia coli [3], not above 0.12 µg/mL; in the experiment on Escherichia coli [4], not above 0.12 µg/mL. Further, the Activity (in [5]; in the experiment with Escherichia coli [6]; in experiment [7]) was less than 1 in each case.
Take `CO[C@@]1(NC(=O)Cc2cccs2)C(=O)N2C(C(=O)O)=C(COC(N)=O)CS[C@@H]21` [CEFOXITIN]: the MIC in the experiment on Escherichia coli [1] was determined as 8 µg/mL (≈ 18.7 µM); against Escherichia coli [2], 8 µg/mL (≈ 18.7 µM); against Escherichia coli [3], 2 µg/mL (≈ 4.68 µM); in the experiment on Escherichia coli [4], 2 µg/mL (≈ 4.68 µM).
For the compound `CC1(C)C(C(=O)O)N2C(=O)C[C@H]2S1(=O)=O` (single isomer, unassigned) [SULBACTAM], in experiment [8], the 50% inhibitory concentration (IC50) stood at 5 µM.
With `CO/N=C(\C(=O)N[C@@H]1C(=O)N2C(C(=O)[O-])=C(C[N+]3(C)CCCC3)CS[C@H]12)c1csc(N)n1`, the MIC in the experiment on Escherichia coli [2] is 0.25 µg/mL (≈ 0.52 µM); in the experiment with Escherichia coli [3] it was not above 0.12 µg/mL; against Escherichia coli [4], not above 0.12 µg/mL.
On to `Cc1onc(-c2ccccc2)c1C(=O)N[C@@H]1C(=O)N2[C@@H]1SC(C)(C)[C@@H]2C(=O)O`, for which the Activity turned out to be 4 in experiment [5] and 12 in the experiment on Escherichia coli [6].
`CC1(C)S[C@@H]2[C@H](NC(=O)[C@H](N)c3ccccc3)C(=O)N2[C@H]1C(=O)O` registered an Activity in [5] of 84.
Take `CC(C)(O/N=C(\C(=O)N[C@@H]1C(=O)N2C(C(=O)[O-])=C(C[n+]3ccccc3)CS[C@H]12)c1csc(N)n1)C(=O)O` [CEFTAZIDIME]: the MIC is 32 µg/mL (≈ 58.5 µM) in the experiment with Escherichia coli [1], 32 µg/mL (≈ 58.5 µM) in the experiment with Escherichia coli [2], not above 0.12 µg/mL against Escherichia coli [3] and not above 0.12 µg/mL in the experiment with Escherichia coli [4]. Also, the Activity (in [5]; with Escherichia coli [6]; in experiment [7]) was less than 1 throughout.
In experiment [9], `O=C(O)[C@H]1/C(=C/CO)O[C@@H]2CC(=O)N21` [CLAVULANIC ACID] showed an Activity of 3 µM. For the same compound, the IC50 in experiment [8] worked out at 0.1 µM.
For the compound `CC(=O)OCC1=C(C(=O)O)N2C(=O)[C@@H](NC(=O)Cc3cccs3)[C@H]2SC1` [CEPHALOTHIN], the MIC is not below 256 µg/mL in the experiment on Escherichia coli [1], not below 256 µg/mL in the experiment on Escherichia coli [2], 8 µg/mL (≈ 20.2 µM) against Escherichia coli [3] and 2 µg/mL (≈ 5.04 µM) against Escherichia coli [4]. The Activity in experiment [5] is 3; with Escherichia coli [6] it was 6; in experiment [7], 27.
On to `CCN1CCN(C(=O)N[C@@H](C(=O)N[C@@H]2C(=O)N3[C@@H]2SC(C)(C)[C@@H]3C(=O)O)c2ccccc2)C(=O)C1=O` [PIPERACILLIN], for which the MIC came out at 128 µg/mL (≈ 247 µM) against Escherichia coli [1], 64 µg/mL (≈ 124 µM) against Escherichia coli [2], 32 µg/mL (≈ 61.8 µM) against Escherichia coli [3] and 2 µg/mL (≈ 3.86 µM) with Escherichia coli [4].
Take `CO/N=C(\C(=O)N[C@@H]1C(=O)N2C(C(=O)O)=C(COC(N)=O)CS[C@H]12)c1ccco1` [CEFUROXIME]: the minimum inhibitory concentration (MIC) against Escherichia coli [1] was determined as 32 µg/mL (≈ 75.4 µM); in the experiment with Escherichia coli [2], 32 µg/mL (≈ 75.4 µM); in the experiment with Escherichia coli [3], 1 µg/mL (≈ 2.36 µM); against Escherichia coli [4] it was 1 µg/mL (≈ 2.36 µM).
